Reference: patent publication US7485641B2, “Substituted 3-amino-pyrrolidino-4-lactams” (Pfizer, Inc., priority 2006, dated 2009)
Where a name gives a salt, the structure may show the parent alone.

molecular target: T1, DPP-IV (Homo sapiens, UniProt P27487); assay: In vitro assay for dipeptidyl peptidase inhibition; type: biochemical; settings: n-value given in brackets; read-out: DPP-IV IC50
T1 construct: purchased Enzyme Systems Products SPE-01
T1 sequence (P27487 whole entry, species assumed): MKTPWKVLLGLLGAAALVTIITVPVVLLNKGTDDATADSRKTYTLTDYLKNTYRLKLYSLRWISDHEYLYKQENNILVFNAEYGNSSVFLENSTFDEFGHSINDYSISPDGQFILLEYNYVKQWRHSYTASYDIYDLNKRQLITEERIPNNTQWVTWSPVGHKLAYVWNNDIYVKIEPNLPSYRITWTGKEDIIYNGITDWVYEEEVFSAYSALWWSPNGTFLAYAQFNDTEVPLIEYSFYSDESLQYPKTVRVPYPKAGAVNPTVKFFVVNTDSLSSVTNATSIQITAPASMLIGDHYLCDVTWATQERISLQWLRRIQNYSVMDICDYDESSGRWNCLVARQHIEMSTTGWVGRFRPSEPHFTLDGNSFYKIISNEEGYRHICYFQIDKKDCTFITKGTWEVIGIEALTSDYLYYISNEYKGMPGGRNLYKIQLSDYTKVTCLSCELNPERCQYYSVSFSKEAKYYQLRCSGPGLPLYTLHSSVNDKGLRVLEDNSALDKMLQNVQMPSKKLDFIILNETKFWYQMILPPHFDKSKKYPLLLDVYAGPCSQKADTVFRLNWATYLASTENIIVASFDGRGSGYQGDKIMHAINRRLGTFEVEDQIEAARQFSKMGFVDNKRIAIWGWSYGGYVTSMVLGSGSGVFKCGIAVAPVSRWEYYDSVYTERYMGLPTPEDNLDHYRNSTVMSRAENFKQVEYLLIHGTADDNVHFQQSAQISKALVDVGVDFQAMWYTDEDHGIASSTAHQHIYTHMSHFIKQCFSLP

| Molecule | IC50 |
| --- | --- |
| 1-((3S,4S)-4-Amino-1-(6-(pyrrolidin-1-yl)pyrimidin-4-yl)pyrrolidin-3-yl)pyrrolidin-2-one(dihydrochloride) [Example 31] | 483 nM |
| Cc1nc(N2C[C@H](N)[C@@H](N3CC(F)(F)CCC3=O)C2)cc(N2CCC(F)(F)C2)n1 [Example 3, 1-((3S,4S)-4-amino-1-(6-(3,3-difluoropyrrolidin-1-yl)-2-methylpyrimidin-4-yl)pyrrolidin-3-yl)-5,5-difluoropiperidin-2-one] | 12.6 nM |
| N[C@H]1CN(c2cc(N3CCc4nocc4C3)ncn2)C[C@@H]1N1CC(F)(F)CCC1=O [Example 4, 1-((3S,4S)-4-amino-1-(6-(6,7-dihydroisoxazolo[4,3-c]pyridin-5(4H)-yl)pyrimidin-4-yl)pyrrolidin-3-yl)-5,5-difluoropiperidin-2-one] | 6.08 nM |
| N[C@H]1CN(c2cc(-c3ccccc3)ncn2)C[C@@H]1N1CCCCC1=O [Example 7, 1-((3S,4S)-4-Amino-1-(6-phenylpyrimidin-4-yl)pyrrolidin-3-yl)piperidin-2-one hydrochloride] | 47.4 nM |
| COc1ccc(-c2cc(N3C[C@H](N)[C@@H](N4CC(F)(F)CCC4=O)C3)ncn2)cn1 [Example 9, 1-((3S,4S)-4-amino-1-(6-(6-methoxypyridin-3-yl)pyrimidin-4-yl)pyrrolidin-3-yl)-5,5-difluoropiperidin-2-one trifluoroacetate] | 27.3 nM |
| N[C@H]1CN(c2ncnc(N3CCC(F)(F)C3)n2)C[C@@H]1N1CCCCC1=O [Example 11, 1-{(3S,4S)-4-Amino-1-[4-(3,3-difluoro-pyrrolidin-1-yl)-[1,3,5]triazin-2-yl]-pyrrolidin-3-yl}-piperidin-2-onedihydrochloride] | 37.4 nM |
| N[C@H]1CN(c2cc(N3CCC(F)(F)C3)ncn2)C[C@@H]1N1CCCC1=O [Example 12, 1-((3S,4S)-4-Amino-1-(6-(3,3-difluoropyrrolidin-1-yl)pyrimidin-4-yl)pyrrolidin-3-yl)pyrrolidin-2-onedihydrochloride] | 522 nM |
| N[C@H]1CN(c2cc(N3CCC(F)(F)C3)nc(C(F)(F)F)n2)C[C@@H]1N1CC(F)(F)CCC1=O [Example 13, 1-((3S,4S)-4-amino-1-(6-(3,3-difluoropyrrolidin-1-yl)-2-(trifluoromethyl)pyrimidin-4-yl)pyrrolidin-3-yl)-5,5-difluoropiperidin-2-one] | 56.7 nM |
| N[C@H]1CN(c2cc(N3CCC(F)(F)C3)nc(C(F)(F)F)n2)C[C@@H]1N1CCCCC1=O [Example 14, 1-((3S,4S)-4-amino-1-(6-(3,3-difluoropyrrolidin-1-yl)-2-(trifluoromethyl)pyrimidin-4-yl)pyrrolidin-3-yl)piperidin-2-one] | 45.1 nM |
| CSc1nc(N2C[C@H](N)[C@@H](N3CCCCC3=O)C2)cc(N2CCC(F)(F)C2)n1 [Example 19, 1-((3S,4S)-4-amino-1-(6-(3,3-difluoropyrrolidin-1-yl)-2-(methylthio)pyrimidin-4-yl)pyrrolidin-3-yl)piperidin-2-one] | 74.9 nM |
| N[C@H]1CN(c2ncnc(N3CCC(F)(F)C3)c2F)C[C@@H]1N1CCCCC1=O [Example 21, 1-((3S,4S)-4-amino-1-(6-(3,3-difluoropyrrolidin-1-yl)-5-fluoropyrimidin-4-yl)pyrrolidin-3-yl)piperidin-2-one] | 218 nM |
| CC(C)(C)c1nc(N2C[C@H](N)[C@@H](N3CCCCC3=O)C2)cc(N2CCC(F)(F)C2)n1 [Example 22, 1-((3S,4S)-4-amino-1-(2-tert-butyl-6-(3,3-difluoropyrrolidin-1-yl)pyrimidin-4-yl)pyrrolidin-3-yl)piperidin-2-one] | 832 nM |
| N[C@H]1CN(c2cc(N3CC[C@H](F)C3)ncn2)C[C@@H]1N1CC(F)(F)CCC1=O [Example 23, 1-((3S,4S)-4-amino-1-(6-((S)-3-fluoropyrrolidin-1-yl)pyrimidin-4-yl)pyrrolidin-3-yl)-5,5-difluoropiperidin-2-one] | 12 nM |
| N[C@H]1CN(c2ncnc(N3CC[C@H](F)C3)n2)C[C@@H]1N1CC(F)(F)CCC1=O [Example 24, 1-((3S,4S)-4-amino-1-(4-((S)-3-fluoropyrrolidin-1-yl)-1,3,5-triazin-2-yl)pyrrolidin-3-yl)-5,5-difluoropiperidin-2-one] | 47.8 nM |
| N[C@H]1CN(c2ncnc(N3CC[C@H](F)C3)n2)C[C@@H]1N1CCCCC1=O [Example 25, 1-((3S,4S)-4-Amino-1-(4-((S)-3-fluoropyrrolidin-1-yl)-1,3,5-triazin-2-yl)pyrrolidin-3-yl)piperidin-2-onetrifluoroacetate] | 80.2 nM |
| Cc1nc(N2CC[C@H](F)C2)cc(N2C[C@H](N)[C@@H](N3CC(F)(F)CCC3=O)C2)n1 [Example 26, 1-((3S,4S)-4-amino-1-(6-((S)-3-fluoropyrrolidin-1-yl)-2-methylpyrimidin-4-yl)pyrrolidin-3-yl)-5,5-difluoropiperidin-2-one] | 37.3 nM |
| N[C@H]1CN(c2ncnc(N3C[C@@H](F)[C@@H](F)C3)n2)C[C@@H]1N1CCCCC1=O [Example 28, 1-((3S,4S)-4-Amino-1-(4-((3R,4S)-3,4-difluoropyrrolidin-1-yl)-1,3,5-triazin-2-yl)pyrrolidin-3-yl)piperidin-2-onetrifluoroacetate] | 67.8 nM |
| N[C@H]1CN(c2ncnc(N3C[C@@H](F)[C@H](F)C3)n2)C[C@@H]1N1CCCCC1=O [Example 29, 1-((3S,4S)-4-Amino-1-(4-((3R,4R)-3,4-difluoropyrrolidin-1-yl)-1,3,5-triazin-2-yl)pyrrolidin-3-yl)piperidin-2-onetrifluoroacetate] | 154 nM |
| N[C@H]1CN(c2ncnc(N3C[C@H](F)[C@@H](F)C3)n2)C[C@@H]1N1CCCCC1=O [Example 30, 1-((3S,4S)-4-Amino-1-(4-((3S,4S)-3,4-difluoropyrrolidin-1-yl)-1,3,5-triazin-2-yl)pyrrolidin-3-yl)piperidin-2-onetrifluoroacetate] | 104 nM |
| N[C@H]1CN(c2ncnc(N3CCCC3)n2)C[C@@H]1N1CCCCC1=O [Example 32, 1-((3S,4S)-4-Amino-1-(4-(pyrrolidin-1-yl)-1,3,5-triazin-2-yl)pyrrolidin-3-yl)piperidin-2-onetrifluoroacetate] | 91.5 nM |
| Cc1nc(N2C[C@H](N)[C@@H](N3CC(F)(F)CCC3=O)C2)cc(N2CCCC(F)(F)C2)n1 [Example 33, 1-((3S,4S)-4-amino-1-(6-(3,3-difluoropiperidin-1-yl)-2-methylpyrimidin-4-yl)pyrrolidin-3-yl)-5,5-difluoropiperidin-2-onetrifluoroacetate] | 97.7 nM |
| CC1(O)CCN(c2ncnc(N3C[C@H](N)[C@@H](N4CCCCC4=O)C3)n2)CC1 [Example 35, 1-{(3S,4S)-4-Amino-1-[4-(4-hydroxy-4-methyl-piperidin-1-yl)-[1,3,5]triazin-2-yl]-pyrrolidin-3-yl}-piperidin-2-onetrifluoroacetate] | 558 nM |

Further molecules by falling IC50, results first:

| IC50 | Molecule |
| --- | --- |
| 488 nM | N[C@H]1CN(c2cc(-c3ccccc3)ncn2)C[C@@H]1N1CCCC1=O [Example 6, 1-((3S,4S)-4-Amino-1-(6-phenylpyrimidin-4-yl)pyrrolidin-3-yl)pyrrolidin-2-one dihydrochloride] |
| 277 nM | Cc1nc(N2C[C@H](N)[C@@H](N3CCCCC3=O)C2)cc(N2CCCC(F)(F)C2)n1 [Example 34, 1-((3S,4S)-4-amino-1-(6-(3,3-difluoropiperidin-1-yl)-2-methylpyrimidin-4-yl)pyrrolidin-3-yl)piperidin-2-onetrifluoroacetate] |
| 136 nM | CC(C)c1nc(N2C[C@H](N)[C@@H](N3CCCCC3=O)C2)cc(N2CCC(F)(F)C2)n1 [Example 16, 1-((3S,4S)-4-amino-1-(6-(3,3-difluoropyrrolidin-1-yl)-2-isopropylpyrimidin-4-yl)pyrrolidin-3-yl)piperidin-2-oneformate] |
| 109 nM | N[C@H]1CN(c2cc(N3CCC(F)(F)C3)nc(C3CC3)n2)C[C@@H]1N1CCCCC1=O [Example 17, 1-((3S,4S)-4-amino-1-(2-cyclopropyl-6-(3,3-difluoropyrrolidin-1-yl)pyrimidin-4-yl)pyrrolidin-3-yl)piperidin-2-one] |
| 92.2 nM | 1-((3S,4S)-4-Amino-1-(4-((R)-3-fluoropyrrolidin-1-yl)-1,3,5-triazin-2-yl)pyrrolidin-3-yl)piperidin-2-onetrifluoroacetate [Example 27] |
| 82.5 nM | CCSc1nc(N2C[C@H](N)[C@@H](N3CCCCC3=O)C2)cc(N2CCC(F)(F)C2)n1 [Example 20, 1-((3S,4S)-4-amino-1-(6-(3,3-difluoropyrrolidin-1-yl)-2-(ethylthio)pyrimidin-4-yl)pyrrolidin-3-yl)piperidin-2-one] |
| 43.3 nM | CCCc1nc(N2C[C@H](N)[C@@H](N3CCCCC3=O)C2)cc(N2CCC(F)(F)C2)n1 [Example 18, 1-((3S,4S)-4-amino-1-(6-(3,3-difluoropyrrolidin-1-yl)-2-propylpyrimidin-4-yl)pyrrolidin-3-yl)piperidin-2-oneformate] |
| 39.8 nM | CCc1nc(N2C[C@H](N)[C@@H](N3CCCCC3=O)C2)cc(N2CCC(F)(F)C2)n1 [Example 15, 1-((3S,4S)-4-amino-1-(6-(3,3-difluoropyrrolidin-1-yl)-2-ethylpyrimidin-4-yl)pyrrolidin-3-yl)piperidin-2-one] |
| 27.1 nM | N[C@H]1CN(c2cc(-c3ccc(O)nc3)ncn2)C[C@@H]1N1CCCCC1=O [Example 8, 1-{(3S,4S)-4-Amino-1-[6-(6-hydroxy-pyridin-3-yl)pyrimidin-4-yl]-pyrrolidin-3-yl}-piperidin-2-one] |
| 25.5 nM | N[C@H]1CN(c2cc(N3CCC(F)(F)C3)ncn2)C[C@@H]1N1CCCCC1=O [Example 10, 1-((3S,4S)-4-Amino-1-(6-(3,3-difluoropyrrolidin-1-yl)pyrimidin-4-yl)pyrrolidin-3-yl)piperidin-2-onedihydrochloride] |
| 11.8 nM | N[C@H]1CN(c2cc(N3CCc4nocc4C3)ncn2)C[C@@H]1N1CCCCC1=O [Example 5, 1-((3S,4S)-4-Amino-1-(6-(6,7-dihydroisoxazolo[4,3-c]pyridin-5(4H)-yl)pyrimidin-4-yl)pyrrolidin-3-yl)piperidin-2-one dihydrochloride] |
